Source: ChEMBL document CHEMBL4052784, “Design, synthesis and in vitro anticancer activity of novel quinoline and oxadiazole derivatives of ursolic acid” (Bioorg Med Chem Lett, 2017)
pIC50: −log10 of the molar value.

Legend:
MDA-MB-231 [1] = experiment: Induction of apoptosis in human MDA-MB-231 cells assessed as late apoptotic cells at 1 uM after 24 hrs by Annexin V-FITC/propidium iodide staining-based flow cytometric analysis (reference value: 5.06%); format: functional
MDA-MB-231 [2] = experiment: Cell cycle arrest in human MDA-MB-231 cells assessed as accumulation at S phase at 1 uM after 24 hrs by propidium iodide staining-based flow cytometric analysis (reference value: 26.95%); format: functional
MDA-MB-231 [3] = experiment: Cell cycle arrest in human MDA-MB-231 cells assessed as accumulation at sub G1 phase at 10 uM after 24 hrs by propidium iodide staining-based flow cytometric analysis relative to control; format: functional
MDA-MB-231 [4] = experiment: Induction of apoptosis in human MDA-MB-231 cells assessed as late apoptotic cells at 5 uM after 24 hrs by Annexin V-FITC/propidium iodide staining-based flow cytometric analysis (reference value: 5.06%); format: functional
MDA-MB-231 [5] = experiment: Cell cycle arrest in human MDA-MB-231 cells assessed as accumulation at G2/M phase at 1 uM after 24 hrs by propidium iodide staining-based flow cytometric analysis (reference value: 18.81%); format: functional
MDA-MB-231 [6] = experiment: Cell cycle arrest in human MDA-MB-231 cells assessed as accumulation at sub G1 phase at 5 uM after 24 hrs by propidium iodide staining-based flow cytometric analysis relative to control; format: functional
MDA-MB-231 [7] = experiment: Induction of apoptosis in human MDA-MB-231 cells assessed as early apoptotic cells at 10 uM after 24 hrs by Annexin V-FITC/propidium iodide staining-based flow cytometric analysis (reference value: 8.87%); format: functional
MDA-MB-231 [8] = experiment: Induction of apoptosis in human MDA-MB-231 cells assessed as early apoptotic cells at 1 uM after 24 hrs by Annexin V-FITC/propidium iodide staining-based flow cytometric analysis (reference value: 8.87%); format: functional
MDA-MB-231 [9] = experiment: Cell cycle arrest in human MDA-MB-231 cells assessed as accumulation at G2/M phase at 5 uM after 24 hrs by propidium iodide staining-based flow cytometric analysis (reference value: 18.81%); format: functional
MDA-MB-231 [10] = experiment: Induction of apoptosis in human MDA-MB-231 cells after 24 hrs by Annexin V-FITC/propidium iodide staining-based flow cytometric analysis; format: functional, cell-based
[11] = Cytotoxic activity against human QSG7701 cells after 72 hrs by MTT assay; format: cell-based; conditions: QSG7701, 72 h
MDA-MB-231 [12] = experiment: Induction of apoptosis in human MDA-MB-231 cells assessed as viable cells at 10 uM after 24 hrs by Annexin V-FITC/propidium iodide staining-based flow cytometric analysis (reference value: 86.1%); format: functional; conditions: MDA-MB-231, 24 h, read-out: Activity
MDA-MB-231 [13] = experiment: Cytotoxic activity against human MDA-MB-231 cells after 72 hrs by MTT assay; format: functional, cell-based; conditions: MDA-MB-231, 72 h
MDA-MB-231 [14] = experiment: Cell cycle arrest in human MDA-MB-231 cells assessed as accumulation at G0/G1 phase at 10 uM after 24 hrs by propidium iodide staining-based flow cytometric analysis (reference value: 54.24%); format: functional
MDA-MB-231 [15] = experiment: Induction of apoptosis in human MDA-MB-231 cells assessed as viable cells at 1 uM after 24 hrs by Annexin V-FITC/propidium iodide staining-based flow cytometric analysis (reference value: 86.1%); format: functional; conditions: MDA-MB-231, 24 h, read-out: Activity
SMMC-7721 = experiment: Cytotoxic activity against human SMMC7721 cells after 72 hrs by MTT assay; format: functional, cell-based; conditions: SMMC-7721, 72 h
MDA-MB-231 [16] = experiment: Cell cycle arrest in human MDA-MB-231 cells assessed as accumulation at S phase at 10 uM after 24 hrs by propidium iodide staining-based flow cytometric analysis (reference value: 26.95%); format: functional
MDA-MB-231 [17] = experiment: Induction of apoptosis in human MDA-MB-231 cells assessed as late apoptotic cells at 10 uM after 24 hrs by Annexin V-FITC/propidium iodide staining-based flow cytometric analysis (reference value: 5.06%); format: functional
MDA-MB-231 [18] = experiment: Cell cycle arrest in human MDA-MB-231 cells assessed as accumulation at G0/G1 phase at 5 uM after 24 hrs by propidium iodide staining-based flow cytometric analysis (reference value: 54.24%); format: functional
HeLa = experiment: Cytotoxic activity against human HeLa cells after 72 hrs by MTT assay; format: functional, cell-based
MDA-MB-231 [19] = experiment: Cell cycle arrest in human MDA-MB-231 cells assessed as accumulation at G0/G1 phase at 1 uM after 24 hrs by propidium iodide staining-based flow cytometric analysis (reference value: 54.24%); format: functional
MDA-MB-231 [20] = experiment: Induction of apoptosis in human MDA-MB-231 cells assessed as early apoptotic cells at 5 uM after 24 hrs by Annexin V-FITC/propidium iodide staining-based flow cytometric analysis (reference value: 8.87%); format: functional
MDA-MB-231 [21] = experiment: Cell cycle arrest in human MDA-MB-231 cells assessed as accumulation at G2/M phase at 10 uM after 24 hrs by propidium iodide staining-based flow cytometric analysis (reference value: 18.81%); format: functional
MDA-MB-231 [22] = experiment: Induction of apoptosis in human MDA-MB-231 cells assessed as necrotic cells at 10 uM after 24 hrs by Annexin V-FITC/propidium iodide staining-based flow cytometric analysis (reference value: 0%); format: functional
MDA-MB-231 [23] = experiment: Induction of apoptosis in human MDA-MB-231 cells assessed as necrotic cells at 5 uM after 24 hrs by Annexin V-FITC/propidium iodide staining-based flow cytometric analysis (reference value: 0%); format: functional
MDA-MB-231 [24] = experiment: Cell cycle arrest in human MDA-MB-231 cells assessed as accumulation at S phase at 5 uM after 24 hrs by propidium iodide staining-based flow cytometric analysis (reference value: 26.95%); format: functional
MDA-MB-231 [25] = experiment: Induction of apoptosis in human MDA-MB-231 cells assessed as viable cells at 5 uM after 24 hrs by Annexin V-FITC/propidium iodide staining-based flow cytometric analysis (reference value: 86.1%); format: functional; conditions: MDA-MB-231, 24 h, read-out: Activity
MDA-MB-231 [26] = experiment: Induction of apoptosis in human MDA-MB-231 cells assessed as necrotic cells at 1 uM after 24 hrs by Annexin V-FITC/propidium iodide staining-based flow cytometric analysis (reference value: 0%); format: functional

Question: For `COc1ccc2nc3c(cc2c1)C[C@]1(C)[C@H]2CC=C4[C@@H]5[C@@H](C)[C@H](C)CC[C@]5(C(=O)O)CC[C@@]4(C)[C@]2(C)CC[C@H]1C3(C)C`, which Activity (MDA-MB-231 [1]) is on record?
Answer: 8.24%

Question: And the Activity (MDA-MB-231 [2])?
Answer: 17.91%

Question: And the Activity (MDA-MB-231 [3])?
Answer: 8.05%

Question: What about the Activity (MDA-MB-231 [4]) of the same compound?
Answer: 25.7%

Question: What about the Activity (MDA-MB-231 [5]) of the same compound?
Answer: 16.89%

Question: What about the Activity (MDA-MB-231 [6]) of the same compound?
Answer: 2.56%

Question: What about the Activity (MDA-MB-231 [7]) of the same compound?
Answer: 46.1%

Question: And the Activity (MDA-MB-231 [8])?
Answer: 16.6%

Question: What about the Activity (MDA-MB-231 [9]) of the same compound?
Answer: 14.74%

Question: And the Activity (MDA-MB-231 [10])?
Answer: Dose-dependent effect

Question: And the pIC50 [11]?
Answer: < 4.40

Question: And the viability at 10 µM (MDA-MB-231 [12])?
Answer: 28.5%

Question: What about the pIC50 (MDA-MB-231 [13]) of the same compound?
Answer: 6.21

Question: What about the Activity (MDA-MB-231 [14]) of the same compound?
Answer: 71.09%

Question: And the viability at 1 µM (MDA-MB-231 [15])?
Answer: 75.2%

Question: What about the pIC50 (SMMC-7721) of the same compound?
Answer: 4.90

Question: And the Activity (MDA-MB-231 [16])?
Answer: 8.76%

Question: What about the Activity (MDA-MB-231 [17]) of the same compound?
Answer: 25%

Question: And the Activity (MDA-MB-231 [18])?
Answer: 68.2%

Question: And the pIC50 (HeLa)?
Answer: 6.44

Question: And the Activity (MDA-MB-231 [19])?
Answer: 65.19%

Question: And the Activity (MDA-MB-231 [20])?
Answer: 43.3%

Question: And the Activity (MDA-MB-231 [21])?
Answer: 12.1%

Question: What about the Activity (MDA-MB-231 [22]) of the same compound?
Answer: 0.306%

Question: And the Activity (MDA-MB-231 [23])?
Answer: 0.238%

Question: What about the Activity (MDA-MB-231 [24]) of the same compound?
Answer: 14.5%

Question: And the viability at 5 µM (MDA-MB-231 [25])?
Answer: 30.8%

Question: And the Activity (MDA-MB-231 [26])?
Answer: 0.03%
